Reference: the NIST ThermoML archive (doi:10.1021/acs.jced.8b00160)

How the values were obtained:
[1] = refractive index (Na D-line) (dimensionless); wn = mass fraction of the nth substance listed; settings: 100 kPa, Liquid, Standard Abbe refractometry
[2] = wn = mass fraction of the nth substance listed; settings: 100 kPa, Liquid, Vibrating tube method
[3] = refractive index (Na D-line) (dimensionless); settings: 100 kPa, Liquid, Standard Abbe refractometry

O=P([O-])([O-])O.[K+].[K+] [dipotassium hydrogen phosphate] + O
298.15 K
Settings	mass density, [2] [kg/m3]	refractive index, [1]
w1 = 0.02	1014.3	1.336
w1 = 0.05	1040.9	1.3401
w1 = 0.1	1086.7	1.3478
w1 = 0.15	1134	1.3551
w1 = 0.2	1183.1	1.3626
w1 = 0.25	1234.3	1.3697
w1 = 0.3	1287.3	1.3774

CC(C)O [propan-2-ol] + O
Settings	mass density, 298.15 K [kg/m3]	mass density, 308.15 K [kg/m3]	mass density, 318.15 K [kg/m3]	refractive index, 298.15 K	refractive index, 308.15 K	refractive index, 318.15 K
[1], w1 = 0.1	–	–	–	1.3418	1.3372	1.3356
[1], w1 = 0.2	–	–	–	1.3506	1.3475	1.3447
[1], w1 = 0.3	–	–	–	1.3573	1.3559	1.3531
[1], w1 = 0.4	–	–	–	1.3629	1.3623	1.3596
[1], w1 = 0.5	–	–	–	1.367	1.3668	1.3643
[1], w1 = 0.6	–	–	–	1.3705	1.3694	1.3679
[2], w1 = 0.1	979.9	976.9	973.7	–	–	–
[2], w1 = 0.2	966.6	958.7	954.8	–	–	–
[2], w1 = 0.3	946	941.9	934.4	–	–	–
[2], w1 = 0.4	925.7	916.8	911.5	–	–	–
[2], w1 = 0.5	901.7	896.2	887.6	–	–	–
[2], w1 = 0.6	879	871.6	862.4	–	–	–

O=P([O-])([O-])[O-].[K+].[K+].[K+] [tripotassium phosphate] + O
Settings	mass density, 298.15 K [kg/m3]	mass density, 308.15 K [kg/m3]	mass density, 318.15 K [kg/m3]	refractive index, 298.15 K	refractive index, 308.15 K	refractive index, 318.15 K
[1], w1 = 0.02	–	–	–	1.3356	1.3346	1.3337
[1], w1 = 0.05	–	–	–	1.3413	1.3402	1.3386
[1], w1 = 0.1	–	–	–	1.3537	1.3512	1.3488
[1], w1 = 0.15	–	–	–	1.3651	1.3632	1.3606
[1], w1 = 0.2	–	–	–	1.3792	1.3768	1.3736
[1], w1 = 0.25	–	–	–	1.3962	1.3928	1.3885
[1], w1 = 0.3	–	–	–	1.418	1.4109	1.4029
[2], w1 = 0.02	1015.8	1011.9	1008.3	–	–	–
[2], w1 = 0.05	1048.6	1045	1040.4	–	–	–
[2], w1 = 0.1	1106.7	1102.7	1100.3	–	–	–
[2], w1 = 0.15	1176.8	1172.6	1171.1	–	–	–
[2], w1 = 0.2	1203.4	1199.8	1194.9	–	–	–
[2], w1 = 0.25	1226.9	1223.5	1218	–	–	–
[2], w1 = 0.3	1241.7	1237.1	1231.8	–	–	–

O [water]
[3]
Settings	refractive index
298.15 K	1.3324
308.15 K	1.3302
318.15 K	1.3298
